Here are results for five compounds from patent US20140309275A1, “Sphingosine Analogs, Compositions, and Methods Related Thereto” (Emory University, priority 2011, published 2014).

Structures are written as SMILES. Like-named read-outs stand apart in the source and are kept apart here.

For orientation: melting point means the temperature of the solid-liquid transition.

The nature of series [1]: Mouse tumor concentrations (human prostate cancer xenograft). Further details: unit not given here. Particulars: tumors harvested, LC/MS/MS. The class given is in vivo, Nude mice. The source says:
Nude mice were subjected to human prostate cancer xenograft procedures, and resulting tumors were allowed to grow for 16 days. […] Once the scheduled time course had passed, the mice were sacrificed. Tumors were harvested, homogenized, and analyzed by LC/MS/MS for tumor-drug concentration.
For orientation: A xenograft is tissue or cells of one species grown in another, often human tumour cells in immunodeficient mice.

In a further series the test system is P. knowlesi H strain. Kind of series: [3H]-labeled hypoxanthine uptake assay, P. knowlesi. Particulars: Plasmodium knowlesi; Table 1; compounds dissolved in 70% ethanol, not BSA-conjugated. The class given is cell-based. The source says: The [^3H]-labeled hypoxanthine uptake method was utilized to assay the effectiveness of our sphingoid base analogs in vitro for their ability to inhibit the growth and replication of malaria parasites in RBCs. […] The simian malaria parasite P. knowlesi has also been recognized as a human pathogen of public health concern in South East Asia, and it can be cultured effectively in vitro. This species was therefore included to probe the potential of multi-species efficacy within this compound class. The data were generated with the known antimalarial drugs chloroquine and mefloquine as controls.
The H strain of P. knowlesi has been adapted to in vitro culture using Macaca mulatta (rhesus monkey) RBCs essentially as described in Kocken et al., Infect Immun 2002, 70 (2), 655-60 (the media was supplemented with 10% human AB serum).
(§1) Chloroquine (Sigma) and mefloquine (Sigma) were used as controls. Compounds in Table 1 were dissolved in 70% 200-proof pharmaceutical grade ethanol, and a working solution of 0.2 mg/mL was prepared using hypoxanthine- and gentamicin-free incomplete RPMI 1640 (Gibco). Compounds in Table 2 were dissolved in 200 proof pharmaceutical grade ethanol at a concentration of 50 μM and then conjugated to BSA (Sigma) as described.^5 A working solution of 0.2 mg/mL was prepared using hypoxanthine- and gentamicin-free incomplete RPMI 1640 (Gibco). Two compounds were tested per plate in triplicate starting at 0.2 mg/mL and diluted two-fold down to 0.019 μg/mL using hypoxanthine- and gentamicin-free RPMI.
(§2) Parasite inoculum was prepared by mixing parasitized blood, uninfected 0+RBCs (for P. falciparum strains) or rhesus RBCs (for P. knowlesi) and culture medium (deficient in hypoxanthine and gentamicin) to a final concentration of 1% parasitemia and 1% haematocrit. A negative control was prepared by diluting uninfected erythrocytes to 1% haematocrit in culture medium. [^3H]-labeled hypoxanthine was added at 24 h (for P. falciparum strains) or 12 h (P. knowlesi) and the culture was collected 48 h or 12 h later for P. falciparum or P. knowlesi, respectively. [^3H] uptake was measured by using a scintillation spectrophotometer (Wallac Oy 1450 MicroBeta reader).
(§3) Triplicate wells were used to calculate the IC50 for each compound using the software XLFit v5.2 using the sigmoidal model 601. Average and standard deviations were calculated using Microsoft Excel.

The test system of series [2] is LNCaP prostate cancer cells. The series can be described thus: WST-1 cytotoxicity assay, LNCaP. It counts as cell-based. Particulars: Homo sapiens, 24 h treatment. The protocol: (§4) Prostate cancer cells were treated with enigmol or analogue for 24 h, and cytotoxicity was assessed by WST-1 assay. cLogPs were calculated with QuikProp on Maestro.
The nature of series [3]: Mouse PK studies (plasma and RBC levels). It counts as in vivo. As to conditions: mice; for PK dose proportionality / plasma half-lives: p.o. 10 or 30 mg/kg single dose. The protocol:
Enigmol (E) or N-Methyl-enigmol (NME) were dissolved as 10× stocks in ethanol, then diluted 1:10 in olive oil the day before dosing; dosing solutions were stored at room temperature overnight. Male mice, CD-1 or Swiss Webster (20 to 30 g), were dosed p.o. at either 10 or 30 mg/kg and 5 ml/kg (n=3/time point). For single dose studies with E and NME, bloods were sampled at 0.5, 1, 2, 4, 6, 8, 16 & 24 hrs. For the 5 day repeat dose study with E, samples were taken on day 5 at 0 (trough) 0.5, 1, 2, 4, 6, 8 & 24 hrs. Blood (˜0.3 ml) was obtained either from the submandibular vein using a 4 mm Small Animal Lancet (MEDIpoint), or by retro-orbital bleeding into 200 uL glass micropipettes (Drummond) under isoflurane anesthesia. Each mouse was sampled once and blood transferred immediately to 0.5 ml K EDTA or Li heparin microtainers (BD) in ice water. Tubes were centrifuged at 2000×g for 10 min in a refrigerated centrifuge to separate plasma from RBCs. The plasma supernatants and RBC pellets (when taken) were transferred into separate 1.5 mL Eppendorf tubes in ice water, then frozen on dry ice and stored at −80° C. prior to analysis by LC/MS/MS. Mouse plasma determinations of Enigmol and N-methylenigmol were done using a bioanalytical assay method consisting of a protein precipitation sample preparation step followed by analysis on an AB SCIEX QTRAP® 5500 LC/MS/MS System. The method employed an internal standard (ISTD) spiking technique with D17:0 sphinganine as the ISTD. The lower limit of quantitation (LLOQ) for the assay method was 10 ng/mL and the upper limit of quantitation (ULOQ) for the assay method was 1,000 ng/mL for both Enigmol and N-methylenigmol. Each bioanalytical run consisted of eight matrixes (mouse plasma) spiked calibration standards and six matrixes spiked quality control (QC) samples at three levels (30 ng/mL, 500 ng/mL, and 900 ng/mL) in duplicate along with unknown mouse study samples. […] Estimates of pharmacokinetic parameters from the single dose (10 mg/kg and 30 mg/kg PO) mouse studies were determined using WinNonlin® (Pharsight, Version 5.3).

Series [4] concerns P. falciparum chloroquine resistant (CQ-R) W2 strain. The series can be described thus: [3H]-labeled hypoxanthine uptake assay, P. falciparum W2. The class given is cell-based. Particulars: Plasmodium falciparum.
Description: (§5) The [^3H]-labeled hypoxanthine uptake method was utilized to assay the effectiveness of our sphingoid base analogs in vitro for their ability to inhibit the growth and replication of malaria parasites in RBCs. […] The simian malaria parasite P. knowlesi has also been recognized as a human pathogen of public health concern in South East Asia, and it can be cultured effectively in vitro. This species was therefore included to probe the potential of multi-species efficacy within this compound class.
(§6) Cryopreserved iRBCs were provided by Dr. John W. Barnwell from the Centers for Disease Control and Prevention and maintained in in vitro culture as described in Trager & Jensen, Science 1976, 193 (4254), 673-5.
as §1, with “Compounds” for “Chloroquine (Sigma) and mefloquine (Sigma) were used as controls. Compounds”
as §2, §3

The test system of series [5] is PC-3 prostate cancer cells. Kind of series: WST-1 cytotoxicity assay, PC-3. It counts as cell-based. As to conditions: 24 h treatment. The protocol:
as §4
For orientation: Formazan colour is commonly taken as a measure of viable cells.

The subject of series [6] is P. falciparum chloroquine susceptible (CQ-S) D6 strain. Kind of series: [3H]-labeled hypoxanthine uptake assay, P. falciparum D6. Particulars: Plasmodium falciparum, read-out: IC50 D6. It counts as cell-based.
Description: as §5, §6
as §1, with “Compounds” for “Chloroquine (Sigma) and mefloquine (Sigma) were used as controls. Compounds”
as §2, §3

The test system of series [7] is P. falciparum W2 strain parasites. The series can be described thus: Morphological changes and parasitemia upon incubation, Giemsa-stained thin blood smears. It counts as cell-based. The protocol:
Upon preliminary examination, morphological changes were detected in the P. falciparum W2 strain parasites after incubation of the cultures with N-Methylenigmol (ESPD-507). The effect was evident between 28 h and 48 h of incubation, with a quantitatively high percentage of various aberrant or stunted forms of ring-stage and trophozoite-stage parasites found on Giemsa-stained thin blood smears (see black arrows in FIG. 2 at 28 h highlighting the presence of abundant ring-stage parasites and at 48 h, noting a vacuolated appearance of trophozoite-stage parasites). These findings can be contrasted with the normal growth, development, and maturation of the parasites without the drug.
By the 48 hour time point, the parasitemia increased from 1% to 5.8+/−0.5% with healthy appearing parasites in the control samples, as expected, while it remained at 1.3+/−0.3% and with aberrant parasite forms in the sample incubated with N-Methylenigmol (Table 2). The relative percentages of rings, trophozoites and schizonts in the cultures with and without the ESPD 507 compound were 41.9%, 39.2% and 18.9% versus 87.9%, 4.2% and 8.05, respectively.
Samples were removed every 4 h and thin blood smears were prepared, stained with modified Giemsa stain, and analyzed by light microscopy for morphological changes in growth and development. The modular incubator used was gassed and returned to 37° C. in less than 5 minutes to avoid delay in parasite growth.

A further series has as its system sphingomyelin synthase. As to conditions: background section; read-out: IC50 sphingomyelin synthase activity in RBCs; cited from earlier work.
Setting [8] is: W2, Table 1, compounds dissolved in 70% ethanol, not BSA-conjugated, read-out: IC50 W2.
The mark [9] stands for this setting: W2, Table 2, compounds conjugated to BSA, read-out: IC50 W2.
Setting [10] is: D6, Table 1, compounds dissolved in 70% ethanol, not BSA-conjugated.
Setting [11] is: D6, Table 2, compounds conjugated to BSA.

Take `C[C@H](N)[C@@H](O)C[C@@H](O)CCCCCCCCCCCCC(F)(F)F` [CF3-Enigmol, (2S,3S,5S)-2-amino-18,18,18-trifluorooctadecane-3,5-diol]: the tumor-drug concentration in [1] (3 mg/kg p.o. once daily) is on record as 1147; in series [1] (10 mg/kg p.o. once daily), 9004.

`CCCCCCCCCCCCC[C@H](O)C[C@H](O)[C@H](C)N` [ESPD-0500, (2S,3S,5S)-2-aminooctadecane-3,5-diol]: the IC50 is 10.5 ± 0.38 µM in the series on P. knowlesi H strain; 13 µM in [2]; 7.37 ± 1.5 µM in series [4] (setting [8]); 9.2 ± 2 µM in series [4] (setting [9]); 7 to 12 µM in series [4] (W2, text b101, summary over W2 and D6 strains, read-out: IC50 / anti-malarial activity on both W2 and D6 strains); 10 µM in [5]. The results for the IC50 in series [6] (setting [10]) and in series [6] (setting [11]) were 12.6 ± 2.4 µM and 5.3 ± 1 µM, respectively. In series [3] (male, mouse, red blood cells (RBC) relative to plasma, po, 30 mg/kg, 30 mg/kg orally once per day, after 5th day of dosing, read-out: drug concentrations in RBCs relative to plasma levels), the Kp at 5 day is ~3. For the same compound, the volumes of distribution result in [3] was “large”. The “plasma levels increase from accumulation” value in series [3] (30 mg/kg orally once per day, after 5th day of dosing) is given as “about 30%”. The PK dose proportionality entry in series [3] is given as “dose proportional”. Moreover, the plasma half-lives result in [3] is reported as “long”. Besides, the tumor-drug concentration is given as 317 in series [1] (3 mg/kg p.o. once daily) and 1565 in series [1] (10 mg/kg p.o. once daily).

With `CCCCCCCCCCCCC[C@H](O)C[C@H](O)[C@H](C)NC` [ESPD-0507, N-Methylenigmol], the IC50 was found to be 1.72 ± 0.01 µM in the series on P. knowlesi H strain; 1.58 ± 0.13 µM in [4] (setting [8]); 0.9 ± 0.35 µM in series [4] (setting [9]); 1.73 µM in series [4] (W2, text b183, 546.94 ng/mL used for the morphology study, W2, read-out: IC50); 4.7 ± 0.1 µM in series [6] (setting [10]); 1.7 ± 1 µM in series [6] (setting [11]). For the same compound, the volumes of distribution entry in series [3] is recorded as “large”. In addition, the PK dose proportionality entry in series [3] is given as “dose proportional”. Further, in [3], the plasma half-lives result is given as “long”. For the same compound, the parasitemia in series [7] (48 hour time point, start 1%, compound at 546.94 ng/mL) is listed as 1.3+/−0.3%. In addition, in series [7] (culture with compound, 48 h), the “relative percentage of rings” value worked out at 41.9%. Besides, in [7] (culture with compound, 48 h), the “relative percentage of schizonts” value is reported as 18.9%. In series [7] (culture with compound, 48 h), the “relative percentage of trophozoites” value is listed as 39.2%.

Consider `CCCCCCCCCCCCC[C@H](O)CC(=O)C(C)(C)N` [ESPD-0562, (S)-2-amino-5-hydroxy-2-methyloctadecan-3-one], for which the melting point lay within 31 to 33 °C. Also, in [4] (setting [9]), the IC50 turned out to be 2.6 ± 1.5 µM. Further, the IC50 in series [6] (setting [11]) turned out to be 2.5 ± 0.1 µM.

On to `CCCCCCCCCCCCCCCC(=O)NC(CN1CCOCC1)C(O)c1ccccc1` (stereo not drawn) [threo-PPMP, phenyl-2-palmitoylamino-3-morpholino-1-propanol], for which the IC50 with sphingomyelin synthase was 0.85 µM.
